# How the values were obtained:
# GSPT1 = assay: Western blot, degradation of substrate protein in hPBMCs; type: cell-based, Human; conditions: 24 hours treatment, compounds at 50 nM and 500 nM (concentration behind the class not stated)
# [1] = molecular target: T1, human Cereblon WT GST-tagged protein (Homo sapiens, UniProt Q96SW2); assay: CRBN-binding affinity, HTRF (CEREBLON BINDING kit); conditions: for inhibition at 0.5 µM: read-out: Inhibition Rate at 0.5 µM (%); for inhibition at 2 µM: read-out: Inhibition Rate at 2 µM (%)
# T1 construct: purchased CISBIO 64BDCRBNPEH
# T1 sequence (Q96SW2 whole entry): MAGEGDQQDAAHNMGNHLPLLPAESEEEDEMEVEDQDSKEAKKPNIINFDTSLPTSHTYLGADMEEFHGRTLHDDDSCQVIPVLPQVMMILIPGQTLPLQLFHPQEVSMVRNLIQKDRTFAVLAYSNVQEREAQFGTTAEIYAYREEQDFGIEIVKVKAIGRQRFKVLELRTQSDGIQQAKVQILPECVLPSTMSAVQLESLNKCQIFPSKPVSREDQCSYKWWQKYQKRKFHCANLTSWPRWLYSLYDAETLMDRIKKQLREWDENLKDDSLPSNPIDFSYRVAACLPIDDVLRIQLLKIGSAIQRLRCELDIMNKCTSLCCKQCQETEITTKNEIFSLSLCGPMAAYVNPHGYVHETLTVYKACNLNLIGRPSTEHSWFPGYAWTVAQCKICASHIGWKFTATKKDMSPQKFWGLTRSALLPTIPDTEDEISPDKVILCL
# IKZF1 = molecular target: T2, IKZF1 (Homo sapiens, UniProt Q13422+Q96SW2); assay: Western blot, degradation of substrate protein in hPBMCs; type: cell-based; conditions: 24 hours treatment, compounds at 50 nM and 500 nM (concentration behind the class not stated)
# T2 construct: effects of the compounds of the present disclosure on the expression of target proteins in cells; endogenous in cells; host or cells: human PBMCs (Milecell Biotechnologies)
# T2 sequence (Q13422 whole entry): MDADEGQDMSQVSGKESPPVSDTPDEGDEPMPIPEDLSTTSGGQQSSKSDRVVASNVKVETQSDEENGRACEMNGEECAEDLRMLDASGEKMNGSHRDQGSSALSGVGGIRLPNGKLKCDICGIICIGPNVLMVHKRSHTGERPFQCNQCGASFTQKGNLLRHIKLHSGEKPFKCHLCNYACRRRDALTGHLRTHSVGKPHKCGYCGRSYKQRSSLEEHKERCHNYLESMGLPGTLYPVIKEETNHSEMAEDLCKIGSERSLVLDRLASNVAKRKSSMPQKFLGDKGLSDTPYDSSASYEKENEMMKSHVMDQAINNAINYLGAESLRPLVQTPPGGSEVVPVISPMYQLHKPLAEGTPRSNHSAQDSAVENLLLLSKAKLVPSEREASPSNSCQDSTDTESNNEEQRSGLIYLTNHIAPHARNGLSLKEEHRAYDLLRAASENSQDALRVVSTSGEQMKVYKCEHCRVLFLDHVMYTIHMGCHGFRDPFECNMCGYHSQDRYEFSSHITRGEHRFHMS
# T2 sequence (Q96SW2 whole entry): as the sequence (Q96SW2 whole entry) above
# T2 sequence (Q16531 whole entry partner): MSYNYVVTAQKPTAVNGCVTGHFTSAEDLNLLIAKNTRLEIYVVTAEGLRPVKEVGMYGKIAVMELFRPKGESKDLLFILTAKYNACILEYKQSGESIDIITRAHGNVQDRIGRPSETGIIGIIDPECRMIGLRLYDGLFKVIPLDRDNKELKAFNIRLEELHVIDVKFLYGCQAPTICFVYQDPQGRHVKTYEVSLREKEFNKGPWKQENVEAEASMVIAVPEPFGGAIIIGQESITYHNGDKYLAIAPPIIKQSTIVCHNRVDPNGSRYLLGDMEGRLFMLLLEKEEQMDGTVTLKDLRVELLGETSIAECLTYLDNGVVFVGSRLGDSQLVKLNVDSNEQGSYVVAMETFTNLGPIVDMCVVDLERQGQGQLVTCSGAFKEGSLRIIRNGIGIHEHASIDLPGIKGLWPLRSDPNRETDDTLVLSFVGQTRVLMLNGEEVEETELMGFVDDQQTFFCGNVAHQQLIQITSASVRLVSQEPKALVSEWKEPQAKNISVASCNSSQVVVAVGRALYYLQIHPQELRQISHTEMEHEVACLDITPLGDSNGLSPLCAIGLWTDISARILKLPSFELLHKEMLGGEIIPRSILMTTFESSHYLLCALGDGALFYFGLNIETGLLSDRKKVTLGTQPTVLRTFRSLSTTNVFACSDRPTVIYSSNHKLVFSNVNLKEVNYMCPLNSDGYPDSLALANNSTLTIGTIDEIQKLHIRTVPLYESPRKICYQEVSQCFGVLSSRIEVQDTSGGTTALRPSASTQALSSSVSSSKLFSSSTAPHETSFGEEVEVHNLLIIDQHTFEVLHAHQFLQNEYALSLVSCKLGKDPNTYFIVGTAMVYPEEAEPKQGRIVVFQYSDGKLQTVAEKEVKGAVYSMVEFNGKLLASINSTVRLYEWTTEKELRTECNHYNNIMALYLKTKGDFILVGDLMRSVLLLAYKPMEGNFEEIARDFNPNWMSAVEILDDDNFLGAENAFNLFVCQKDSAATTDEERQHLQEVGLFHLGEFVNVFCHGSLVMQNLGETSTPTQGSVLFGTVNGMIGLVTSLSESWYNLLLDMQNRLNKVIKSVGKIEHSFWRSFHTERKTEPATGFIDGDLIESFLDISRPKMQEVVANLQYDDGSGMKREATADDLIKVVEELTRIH
# IKZF2 = molecular target: T3, IKZF2 (Homo sapiens, UniProt Q96SW2+Q9UKS7); assay: as above; type: cell-based; conditions: 24 hours treatment, compounds at 50 nM and 500 nM (concentration behind the class not stated)
# T3 construct: effects of the compounds of the present disclosure on the expression of target proteins in cells; endogenous in cells; host or cells: human PBMCs (Milecell Biotechnologies)
# T3 sequence (Q9UKS7 whole entry): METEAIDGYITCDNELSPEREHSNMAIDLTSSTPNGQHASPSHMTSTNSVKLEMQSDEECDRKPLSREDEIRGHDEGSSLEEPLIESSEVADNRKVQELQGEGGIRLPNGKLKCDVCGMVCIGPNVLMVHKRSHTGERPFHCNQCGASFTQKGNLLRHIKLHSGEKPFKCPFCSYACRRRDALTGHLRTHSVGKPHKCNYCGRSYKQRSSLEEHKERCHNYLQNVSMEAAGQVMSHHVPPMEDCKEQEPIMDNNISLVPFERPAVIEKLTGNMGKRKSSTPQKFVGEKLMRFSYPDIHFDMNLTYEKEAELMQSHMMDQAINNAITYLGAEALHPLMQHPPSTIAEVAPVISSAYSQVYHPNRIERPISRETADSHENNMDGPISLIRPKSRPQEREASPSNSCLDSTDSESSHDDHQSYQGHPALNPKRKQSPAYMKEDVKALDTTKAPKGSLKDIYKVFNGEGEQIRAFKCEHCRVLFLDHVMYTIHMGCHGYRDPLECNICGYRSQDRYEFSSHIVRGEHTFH
# T3 sequence (Q96SW2 whole entry): as the sequence (Q96SW2 whole entry) above
# T3 sequence (Q16531 whole entry partner): as the sequence (Q16531 whole entry partner) above
# CK1α = molecular target: T4, CK1α (Homo sapiens, UniProt P48729+Q96SW2); assay: as above; type: cell-based; conditions: 24 hours treatment, compounds at 50 nM and 500 nM (concentration behind the class not stated)
# T4 construct: effects of the compounds of the present disclosure on the expression of target proteins in cells; endogenous in cells; host or cells: human PBMCs (Milecell Biotechnologies)
# T4 sequence (P48729 whole entry): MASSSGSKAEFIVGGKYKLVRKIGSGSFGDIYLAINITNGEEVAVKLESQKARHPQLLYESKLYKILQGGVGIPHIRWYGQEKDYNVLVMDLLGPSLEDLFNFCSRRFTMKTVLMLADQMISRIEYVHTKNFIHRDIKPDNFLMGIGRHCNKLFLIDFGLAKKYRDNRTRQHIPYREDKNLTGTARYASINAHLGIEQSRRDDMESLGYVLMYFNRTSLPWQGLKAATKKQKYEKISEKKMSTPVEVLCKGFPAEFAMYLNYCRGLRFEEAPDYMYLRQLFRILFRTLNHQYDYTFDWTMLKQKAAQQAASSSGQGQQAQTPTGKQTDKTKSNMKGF
# T4 sequence (Q96SW2 whole entry): as the sequence (Q96SW2 whole entry) above
# T4 sequence (Q16531 whole entry partner): as the sequence (Q16531 whole entry partner) above
# WEE1 = molecular target: T5, WEE1 (Homo sapiens, UniProt P30291+Q96SW2); assay: as above; type: cell-based; conditions: 24 hours treatment, compounds at 50 nM and 500 nM (concentration behind the class not stated)
# T5 construct: effects of the compounds of the present disclosure on the expression of target proteins in cells; endogenous in cells; host or cells: human PBMCs (Milecell Biotechnologies)
# T5 sequence (P30291 whole entry): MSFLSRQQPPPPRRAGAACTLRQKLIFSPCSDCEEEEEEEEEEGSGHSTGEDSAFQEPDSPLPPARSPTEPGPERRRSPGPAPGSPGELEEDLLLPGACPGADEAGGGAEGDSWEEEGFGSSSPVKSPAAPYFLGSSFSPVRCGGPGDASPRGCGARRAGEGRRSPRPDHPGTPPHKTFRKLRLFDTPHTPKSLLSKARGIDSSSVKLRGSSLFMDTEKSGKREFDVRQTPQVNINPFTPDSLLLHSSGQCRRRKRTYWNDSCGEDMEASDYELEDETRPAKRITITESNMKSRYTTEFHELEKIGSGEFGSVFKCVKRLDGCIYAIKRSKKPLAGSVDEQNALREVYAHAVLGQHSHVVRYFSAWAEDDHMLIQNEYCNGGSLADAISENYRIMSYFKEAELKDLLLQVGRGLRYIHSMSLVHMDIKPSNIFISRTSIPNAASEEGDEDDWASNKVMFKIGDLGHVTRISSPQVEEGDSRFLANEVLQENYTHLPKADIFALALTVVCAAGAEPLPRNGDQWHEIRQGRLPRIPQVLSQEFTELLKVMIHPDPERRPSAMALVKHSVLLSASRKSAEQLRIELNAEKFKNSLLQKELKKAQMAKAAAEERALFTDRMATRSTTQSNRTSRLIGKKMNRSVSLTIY
# T5 sequence (Q96SW2 whole entry): as the sequence (Q96SW2 whole entry) above
# T5 sequence (Q16531 whole entry partner): as the sequence (Q16531 whole entry partner) above
# IKZF3 = molecular target: T6, IKZF3 (Homo sapiens, UniProt Q96SW2+Q9UKT9); assay: as above; type: cell-based; conditions: 24 hours treatment, compounds at 50 nM and 500 nM (concentration behind the class not stated)
# T6 construct: effects of the compounds of the present disclosure on the expression of target proteins in cells; endogenous in cells; host or cells: human PBMCs (Milecell Biotechnologies)
# T6 sequence (Q9UKT9 whole entry): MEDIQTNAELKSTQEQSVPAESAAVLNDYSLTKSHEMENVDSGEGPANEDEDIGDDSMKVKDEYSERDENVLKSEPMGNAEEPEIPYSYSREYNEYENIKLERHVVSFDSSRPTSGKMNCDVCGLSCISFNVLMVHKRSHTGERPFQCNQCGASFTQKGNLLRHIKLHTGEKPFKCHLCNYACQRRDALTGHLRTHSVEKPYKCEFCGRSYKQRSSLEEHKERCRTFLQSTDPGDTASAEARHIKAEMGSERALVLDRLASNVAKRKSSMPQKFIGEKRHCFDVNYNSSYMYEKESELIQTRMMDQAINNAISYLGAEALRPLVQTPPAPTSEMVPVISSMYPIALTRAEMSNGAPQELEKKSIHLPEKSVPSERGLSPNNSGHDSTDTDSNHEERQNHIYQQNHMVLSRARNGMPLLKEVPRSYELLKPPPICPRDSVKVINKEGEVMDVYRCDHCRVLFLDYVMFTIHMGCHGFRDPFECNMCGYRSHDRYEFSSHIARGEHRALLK
# T6 sequence (Q96SW2 whole entry): as the sequence (Q96SW2 whole entry) above
# T6 sequence (Q16531 whole entry partner): as the sequence (Q16531 whole entry partner) above
SMILES,GSPT1 substrate protein remaining % (GSPT1),inhibition at 0.5 µM [1],inhibition at 2 µM [1],IKZF 1 substrate protein remaining % (IKZF1),IKZF2 substrate protein remaining % (IKZF2),CK1α substrate protein remaining % (CK1α),Wee1 substrate protein remaining % (WEE1),IKZF3 substrate protein remaining % (IKZF3)
"Cc1cc2c(N3CCN(Cc4cccc5c4CN(C4CCC(=O)NC4=O)C5=S)CC3)ncnc2s1 (centres unmarked) [GT-08914, 3-(4-((4-(6-methylthieno[2,3-d]pyrimidin-4-yl)piperazin-1-yl)methyl)-1-thioxoisoindolin-2-yl)piperidine-2,6-dione]",B (80%< substrate protein remaining %≤ 100%),60 to 80%,80 to 100%,B (80%< substrate protein remaining %≤ 100%),B (80%< substrate protein remaining %≤ 100%),B (80%< substrate protein remaining %≤ 100%),A (0% ≤ substrate protein remaining % ≤ 80%),B (80%< substrate protein remaining %≤ 100%)
"Cc1sc2ncnc(N3CCN(Cc4cccc5c4CN(C4CCC(=O)NC4=O)C5=S)CC3)c2c1C (centres unmarked) [GT-08916, 3-(4-((4-(5,6-dimethylthieno[2,3-d]pyrimidin-4-yl)piperazin-1-yl)methyl)-1-thioxoisoindolin-2-yl)piperidine-2,6-dione]",A (0% ≤ substrate protein remaining % ≤ 80%),40 to 53%,80 to 100%,B (80%< substrate protein remaining %≤ 100%),B (80%< substrate protein remaining %≤ 100%),B (80%< substrate protein remaining %≤ 100%),A (0% ≤ substrate protein remaining % ≤ 80%),B (80%< substrate protein remaining %≤ 100%)
"Cc1sc2ncnc(N3CCCN(Cc4cccc5c4CN(C4CCC(=O)NC4=O)C5=S)CC3)c2c1C (centres unmarked) [GT-08917, 3-(4-((4-(5,6-dimethylthieno[2,3-d]pyrimidin-4-yl)-1,4-diazepan-1-yl)methyl)-1-thioxoisoindolin-2-yl)piperidine-2,6-dione]",A (0% ≤ substrate protein remaining % ≤ 80%),53 to 60%,80 to 100%,B (80%< substrate protein remaining %≤ 100%),B (80%< substrate protein remaining %≤ 100%),B (80%< substrate protein remaining %≤ 100%),A (0% ≤ substrate protein remaining % ≤ 80%),B (80%< substrate protein remaining %≤ 100%)
"O=C1CCC(N2Cc3c(CN4CCN(c5ncnc6sc(Br)cc56)CC4)cccc3C2=S)C(=O)N1 (centres unmarked) [GT-08918, 3-(4-((4-(6-bromothieno[2,3-d]pyrimidin-4-yl)piperazin-1-yl)methyl)-1-thioxoisoindolin-2-yl)piperidine-2,6-dione]",B (80%< substrate protein remaining %≤ 100%),60 to 80%,80 to 100%,B (80%< substrate protein remaining %≤ 100%),B (80%< substrate protein remaining %≤ 100%),B (80%< substrate protein remaining %≤ 100%),A (0% ≤ substrate protein remaining % ≤ 80%),B (80%< substrate protein remaining %≤ 100%)
"O=C1CCC(N2Cc3c(CN4CCN(c5ncnc6sc(-c7ccccc7)cc56)CC4)cccc3C2=S)C(=O)N1 (centres unmarked) [GT-08919, 3-(4-((4-(6-phenylthieno[2,3-d]pyrimidin-4-yl)piperazin-1-yl)methyl)-1-thioxoisoindolin-2-yl)piperidine-2,6-dione]",B (80%< substrate protein remaining %≤ 100%),20 to 30%,60 to 80%,B (80%< substrate protein remaining %≤ 100%),B (80%< substrate protein remaining %≤ 100%),B (80%< substrate protein remaining %≤ 100%),A (0% ≤ substrate protein remaining % ≤ 80%),B (80%< substrate protein remaining %≤ 100%)
"Cc1nc(N2CCN(Cc3cccc4c3CN(C3CCC(=O)NC3=O)C4=S)CC2)c2ccsc2n1 (centres unmarked) [GT-08922, 3-(4-((4-(2-methylthieno[2,3-d]pyrimidin-4-yl)piperazin-1-yl)methyl)-1-thioxoisoindolin-2-yl)piperidine-2,6-dione]",B (80%< substrate protein remaining %≤ 100%),60 to 80%,80 to 100%,B (80%< substrate protein remaining %≤ 100%),B (80%< substrate protein remaining %≤ 100%),B (80%< substrate protein remaining %≤ 100%),A (0% ≤ substrate protein remaining % ≤ 80%),B (80%< substrate protein remaining %≤ 100%)
"O=C1CCC(N2Cc3c(CN4CCN(c5ncnc6sc7c(c56)CCCC7)CC4)cccc3C2=S)C(=O)N1 (centres unmarked) [GT-08924, 3-(4-((4-(5,6,7,8-tetrahydrobenzo[4,5]thieno[2,3-d]pyrimidin-4-yl)piperazin-1-yl)methyl)-1-thioxoisoindolin-2-yl)piperidine-2,6-dione]",B (80%< substrate protein remaining %≤ 100%),40 to 53%,80 to 100%,B (80%< substrate protein remaining %≤ 100%),A (0% ≤ substrate protein remaining % ≤ 80%),B (80%< substrate protein remaining %≤ 100%),A (0% ≤ substrate protein remaining % ≤ 80%),B (80%< substrate protein remaining %≤ 100%)
"Cc1nc(N2CCN(Cc3cccc4c3CN(C3CCC(=O)NC3=O)C4=S)CC2)c2c3c(sc2n1)CCC3 (centres unmarked) [GT-08926, 3-(4-((4-(2-methyl-6,7-dihydro-5H-cyclopenta[4,5]thieno[2,3-d]pyrimidin-4-yl)piperazin-1-yl)methyl)-1-thioxoisoindolin-2-yl)piperidine-2,6-dione]",B (80%< substrate protein remaining %≤ 100%),53 to 60%,80 to 100%,B (80%< substrate protein remaining %≤ 100%),B (80%< substrate protein remaining %≤ 100%),B (80%< substrate protein remaining %≤ 100%),A (0% ≤ substrate protein remaining % ≤ 80%),B (80%< substrate protein remaining %≤ 100%)
"O=C1CCC(N2Cc3c(CN4CCN(c5ncc6ccsc6n5)CC4)cccc3C2=S)C(=O)N1 (centres unmarked) [GT-08927, 3-(4-((4-(thieno[2,3-d]pyrimidin-2-yl)piperazin-1-yl)methyl)-1-thioxoisoindolin-2-yl)piperidine-2,6-dione]",B (80%< substrate protein remaining %≤ 100%),60 to 80%,80 to 100%,B (80%< substrate protein remaining %≤ 100%),A (0% ≤ substrate protein remaining % ≤ 80%),B (80%< substrate protein remaining %≤ 100%),A (0% ≤ substrate protein remaining % ≤ 80%),A (0% ≤ substrate protein remaining % ≤ 80%)
"O=C1CCC(N2Cc3c(CN4CCC(c5ncnc6sc(-c7ccccc7)cc56)CC4)cccc3C2=S)C(=O)N1 (centres unmarked) [GT-08929, 3-(4-((4-(6-phenylthieno[2,3-d]pyrimidin-4-yl)piperidin-1-yl)methyl)-1-thioxoisoindolin-2-yl)piperidine-2,6-dione]",B (80%< substrate protein remaining %≤ 100%),30 to 40%,60 to 80%,B (80%< substrate protein remaining %≤ 100%),B (80%< substrate protein remaining %≤ 100%),B (80%< substrate protein remaining %≤ 100%),A (0% ≤ substrate protein remaining % ≤ 80%),B (80%< substrate protein remaining %≤ 100%)
